Four molecules from US8071321B2, “Methods for up-regulating antigen expression in tumors” (CytoCure LLC, priority 2002, dated 2011) can be followed below.

Experiment [1] relates to gp100 antigen in MU-X melanoma cells. The experiment in a line: Flow cytometric analysis of gp100 (HMB) staining in MU-X low antigen-expressing cells. It counts as cell-based, human. The protocol:
(§1) Determination of protein Antigen in Tumor Cells via Flow Cytometric Analysis: To evaluate expression of cytoplasmic Melan-A/MART-1 antigen in melanoma tumor cell lines, cells were first fixed for 10′ in 1% paraformaldehyde; the cells are pelleted and incubated for 5′ in 0.1% saponin prior to washing and addition of monoclonal antibody specific for Melan-A/MART-1, A-103 (Ramirez-Montagut, et al., supra) for 45′ at 22° C. Following two washes, the cells were stained for 30′ with FITC-conjugated goat-anti-mouse Ig antibody (DAKO, Carpenteria, Calif.) prior to fixation in 1% paraformaldehyde and analysis by flow cytometry (FACScan, Becton-Dickinson, Mt. View, Calif.). Histograms of fluorescence staining were generated for comparison of anti-Melan-A/MART-1 staining of various cell populations. Mean channel fluorescence was calculated using the “LYSIS” software provided by the manufacturer. Gp100 expression was determined similarly using the HMB45 monoclonal antibody.

The test system of experiment [2] is Melan-A/MART-1 in MITF-M transfected A375 tumor cells. Particulars: 24 hours, U0126 10 μM (FIG. 6). On the procedure:
(§2) Primers were designed from appropriate GenBank mRNA and genomic entries and designed to be intron-spanning to prevent simultaneous amplification of traces of genomic DNAs. Where this was not possible RNAs were treated with RNase-free DNase I and repurified.
(§3) To express MITF-M in cell lines expressing low levels of Melan-A/MART-1, MITF-M coding sequence was amplified from MITF-M-positive cells and cloned in an SV40-promoter expression vector (pSV21ink); translation of the MITF-M insert uses optimal Kozak initiation signals (Kozak (1999). Gene 234:187). Constructs were transfected into low-Melan-A/MART-1 expressor melanoma (MU-X and A375). In all studies controls comprised empty vector, transfection reagents in the absence of added DNA, and corresponding untransfected cells. Data shown in FIG. 6 for A375 and MU-X tumor cells transfected with MITF-M for 24 hours in the presence (10 μM) or absence of U0126 before PCR amplification of Melan-A/MART-1.

Experiment [3] concerns Melan-A/MART-1 in MITF-M transfected MU-X tumor cells. The settings on record: 24 hours, U0126 10 μM (FIG. 6). On the procedure:
as §2, §3

In experiment [4] the test system is gp100 antigen in MU-89 melanoma cells. Kind of experiment: Flow cytometric analysis of gp100 (HMB45 staining) in MU-89 cells. It counts as cell-based, human. The settings on record: HMB 45 staining, control MU-89 41.6. The protocol:
as §1
Background: In flow cytometry, cells or beads pass a laser one at a time.

Experiment [5] has as its system melanocyte-related genes in MU-89 cells. The experiment in a line: RT-PCR of melanoma gene expression in MU-89 cells. It counts as cell-based, human. The settings on record: MU-89 cells (FIG. 5).

As for `Nc1ncn([C@H]2C[C@H](O)[C@@H](CO)O2)c(=O)n1` [5 azadeoxycytidine], the “effect on interferon-beta induced gp100 expression” value in experiment [1] (gp100 (HMB) staining (FIG. 4)) is reported as “augmented”.

For `Nc1ncn([C@@H]2O[C@H](CO)[C@@H](O)[C@H]2O)c(=O)n1` [5-AZA, 5-azacytidine], in experiment [1] (MU-X cells, 5-AZA 40uM, MU-X control 12.8), the “gp100 mean channel fluorescence” value was 39.0.

Take `N#CC(=C(/N)Sc1ccccc1N)/C(C#N)=C(\N)Sc1ccccc1N` [U0126]: the Melan-A/MART-1 expression entry in experiment [2] and in experiment [3] was “augmented enhancement” throughout.

B1: OSM: Recombinant human oncostatin M (rhOSM) from R&D Systems (protein, UniProt P13725 26-221, looked up)
Oncostatin-M: AAIGSCSKEYRVLLGQLQKQTDLMQDTSRLLDPYIRIQGLDVPKLREHCRERPGAFPSEETLRGLGRRGFLQTLNATLGCVLHRLADLEQRLPKAQDLERSGLNIEDLEKLQMARPNILGLRNNIYCMAQLLDNSDTAEPTKAGRGASQPPTPTPASDAFQRKLEGCRFLHGYHRFMHSVGRVFSKWGESPNRSRR
With B1, the “gp100 mean channel fluorescence” value in experiment [4] is listed as 29.5. In experiment [5], the MITF-A isoform expression result was “not detectably responsive”; the MITF-M expression entry is “down-modulates”; the “expression of Melan-A/MART-1, tyrosinase, gp100, TRP-1 and TRP-2 genes” value is reported as “induces down-modulation”.
